# Measured values from patent publication US20140357512A1, “HISTONE DEACETYLASE (HDAC) BIOMARKERS IN MULTIPLE MYELOMA” (priority 2013, published 2014).
# Tested on: human myeloma cell line MM.1S
# Test: SILAC acetylated-lysine peptide profiling, HDAC inhibitor vs DMSO (light/heavy ratio)
# Type: cell-based
# From the text: An embodiment of the invention comprises utilizing the SILAC method in order to quantitate changes in protein expression between two or more populations of cells. The SILAC method is a technique based on mass spectrometry that detects differences in protein abundance among samples using non-radioactive isotopic labeling. The SILAC method is known in the art, and described in detail in Ong et al., “Stable Isotope Labeling by Amino Acids in Cell Culture, SILAC, as a Simple and Accurate Approach to Expression Proteomics”, Molecular & Cellular Proteomics, vol. 1, pp. 376-386 (2002), which is incorporated herein by reference in its entirety.
# Briefly, the SILAC method involves growing two populations of cells in cell culture. The first population of cells is grown in growth media containing normal amino acids (“normal media”). The second population of cells is grown in media lacking a standard essential amino acid (such as lysine), but is then supplemented with a non-radioactive, isotopically labeled form of that essential amino acid (such as lysine labeled with ^13C atoms, rather than normal ^12C atoms), which is called “heavy media”. When the two populations of cells are each growing in the medium, they incorporate the amino acids into all of their proteins. The growth of cells maintained in the heavy media is no different from that in normal media. All peptides containing the heavy amino acids are heavier than their normal counterparts. The cells from each of the two populations of cells are lysed. The lysates from each of the two cell populations are then combined. The combined cell lysates are then analyzed by mass spectrometry. Pairs of chemically identical peptides of different stable isotope composition can be differentiated in a mass spectrometer due to their difference in mass. The ratio of peak intensities in the mass spectrum for such peptide pairs reflects the abundance ratio for the two proteins.
# This example describes SILAC studies that were performed to compare the effects of three different HDAC inhibitors (Compound A, Compound B, and tubastatin A) to a control on a human multiple myeloma cell line. The HDAC inhibitors were also compared amongst themselves to determine differences in their effects.
# A human myeloma cell line MM.1S was grown using either ^12C (light) or ^13C (heavy) lysine containing culture medium. The “heavy” cells were treated with DMSO as the control, and the “light” cells were treated with a single HDAC inhibitor at 37° C. for 6 hours. The heavy and light cells were lysed, and the lysates were mixed in 1:1 ratio and digested with the protease trypsin. The acetylated lysine containing peptides (due to the action of the HDAC inhibitor) in the digested peptide pool were captured by a non-specific anti-acetylated lysine antibody cocktail (the antibodies identify both light and heavy acetylated peptides), and subjected to mass spectrometry analysis in order to identify thousands of individual peptides.
# Thousands of peptides were identified in pairs (^12C and ^13C) due to their known mass differences. The amino acid sequence and quantitative ratio (Light/Heavy) of a given peptide in two differentially treated cell lysates were then determined and annotated with their possible protein (gene) sources.
# As stated above, three HDAC inhibitors (Compound A, Compound B, and Tubastatin A) were used. Thus, the SILAC method was performed three times, with a different HDAC inhibitor compared to a control each time. Accordingly, there are three pairs of quantitative data in the table below, i.e., Compound A:DMSO, Compound B:DMSO, and Tubastatin A:DMSO. A cut-off of 1.30 fold of change (increase or decrease) was then used to determine “changed” or “+” in the table, and any peptides with a fold of change less than 1.3 fold were determined to be “unchanged” or “0” in the table. Those peptides that were not identified were marked as “NA” in the table. […]
smiles,measurement,setting,value
CN1CCc2c(c3ccccc3n2Cc2ccc(C(=O)NO)cc2)C1 [Tub A],light to heavy ratio (L/H ratio) of acetylated peptide YFDEK(ac)IAK (SEQ ID NO: 563),"D-beta-hydroxybutyrate dehydrogenase mitochondrial [280], gene BDH1, inhibitor:DMSO",0.00 log 2
same,"light to heavy ratio (L/H ratio) of acetylated peptide, log 2 scale","DAAGSGDK(ac)PGADTGR (SEQ ID NO: 185), 39S ribosomal protein L53 mitochondrial [105], MRPL53",0.38
same,"light to heavy ratio (L/H ratio) of acetylated peptide, log 2 scale","DAISGIGTDEK(ac)CLIEILASR (SEQ ID NO: 128), Annexin A6 [113], ANXA6",0.67
same,L/H ratio of acetylated peptide FK(ac)DPNCVGTVLASR (SEQ ID NO: 30),"DAZAP1 [59], log 2 scale, drug vs DMSO",−0.51
same,"light to heavy ratio (L/H ratio) of acetylated peptide, log 2 scale","DCDHADEQK(ac)CYSCGEFGHIQK (SEQ ID NO: 145), Isoform 1 of Cellular nucleic acid-binding protein [118], CNBP",−0.38
same,L/H ratio of acetylated peptide APTIVGK(ac)SSLNPILFR (SEQ ID NO: 31),"DDOST [189], log 2 scale, drug vs DMSO",−0.51
same,L/H ratio of acetylated peptide FGNPGEK(ac)LVK (SEQ ID NO: 34),"DDX5 [40], log 2 scale, drug vs DMSO",0.45
same,L/H ratio of acetylated peptide DWVLNEFK(ac)HGK (SEQ ID NO: 33),"DDX5 [388], log 2 scale, drug vs DMSO",−0.41
same,L/H ratio of acetylated peptide FEK(ac)NFYVEHPEVAR (SEQ ID NO: 32),"DDX17 [132], log 2 scale, drug vs DMSO",−0.42
same,"light to heavy ratio (L/H ratio) of acetylated peptide, log 2 scale","DELGDYLK(ac)PK (SEQ ID NO: 184), 39S ribosomal protein L46 mitochondrial [265], MRPL46",−0.96
same,L/H ratio of acetylated peptide,"DHPLPEVAHVK(ac)HLSASQK (SEQ ID NO: 381), Cytochrome c oxidase subunit 4 isoform 1 mitochondrial [53], COX4I1",0.00 log 2
same,"light to heavy ratio (L/H ratio) of acetylated peptide, log 2 scale","DK(ac)TQYIFNNMVLK (SEQ ID NO: 182), Alpha-mannosidase 2 [191], MAN2A1",−0.45
same,L/H ratio of acetylated peptide ELNK(ac)ILEGR (SEQ ID NO: 2),"DLAT [466], log 2 scale, drug vs DMSO",0.45
same,"light to heavy ratio (L/H ratio) of acetylated peptide, log 2 scale","DLEK(ac)WQNNLLPSR (SEQ ID NO: 211), 40S ribosomal protein 515a [88], RPS15A",−0.46
same,"light to heavy ratio (L/H ratio) of acetylated peptide, log 2 scale","DLMTDLK(ac)SEISGDLAR (SEQ ID NO: 129), Annexin A6 [418], ANXA6",0.42
same,L/H ratio of acetylated peptide VVK(ac)HPIFER (SEQ ID NO: 35),"DNAJB11 [247], log 2 scale, drug vs DMSO",−0.91
same,"light to heavy ratio (L/H ratio) of acetylated peptide, log 2 scale","DSGNK(ac)PPGLLPR (SEQ ID NO: 160), Isoform 1 of Glutathione S-transferase kappa 1 [54], GSTK1",0.47
same,"light to heavy ratio (L/H ratio) of acetylated peptide, log 2 scale","DVK(ac)FGADAR (SEQ ID NO: 173), 60 kDa heat shock protein mitochondrial [31], HSPD1",−0.66
same,L/H ratio of acetylated peptide SFDSEFK(ac)LACK (SEQ ID NO: 8),"DYNC1H1 [4283], log 2 scale, drug vs DMSO",0.44
same,light to heavy ratio (L/H ratio) of acetylated peptide LNLDK(ac)MMEQK (SEQ ID NO: 603),"Dihydrolipoyl dehydrogenase mitochondrial [122], gene DLD, inhibitor:DMSO",0.00 log 2
same,light to heavy ratio (L/H ratio) of acetylated peptide DTYIENEK(ac)LISGK (SEQ ID NO: 352),"Dolichyl-diphosphooligosaccharide--protein glycosyltransferase subunit 1 precursor [626], RPN1, drug:DMSO",0.00 log 2
same,light to heavy ratio (L/H ratio) of acetylated peptide YNIEK(ac)DIAAHIK (SEQ ID NO: 553),"Dynein light chain 1 cytoplasmic [36], gene DYNLL1, inhibitor:DMSO",0.00 log 2
same,light to heavy ratio (L/H ratio) of acetylated peptide YNIEK(ac)DIAAYIK (SEQ ID NO: 331),"Dynein light chain 2 cytoplasmic [36], DYNLL2, drug:DMSO",0.00 log 2
same,"light to heavy ratio (L/H ratio) of acetylated peptide, log 2 scale","EAALEPSMEK(ac)IFK (SEQ ID NO: 157), cDNA FLJ59630 highly similar to Growth hormone-inducible transmembrane protein [76], GHITM",−0.68
same,"light to heavy ratio (L/H ratio) of acetylated peptide, log 2 scale","EDQK(ac)PVMDDQR (SEQ ID NO: 141), Isoform 1 of HLA class I histocompatibility antigen gamma chain [14], CD74",−0.79
same,L/H ratio of acetylated peptide TSK(ac)NK(ac)SSLSR (SEQ ID NO: 14),"EP300 [1558:1560], log 2 scale, drug vs DMSO",0.42
same,"light to heavy ratio (L/H ratio) of acetylated peptide, log 2 scale","EQEHMINWVEK(ac)HVVQSISTQQEK (SEQ ID NO: 132), ATP synthase subunit b mitochondrial [221], ATP5F1",0.77
same,"light to heavy ratio (L/H ratio) of acetylated peptide, log 2 scale","EVHK(ac)QVVESAYEVIK (SEQ ID NO: 181), Isoform 1 of L-lactate dehydrogenase A chain [232], LDHA",−0.67
same,"light to heavy ratio (L/H ratio) of acetylated peptide, log 2 scale","EVQTNDLK(ac)EVVNK (SEQ ID NO: 223), 40S ribosomal protein S3a [182], SNORD73A, RPS3A",−0.60
same,light to heavy ratio (L/H ratio) of acetylated peptide TFK(ac)GVVDVVMK (SEQ ID NO: 550),"Elongation factor G 2 mitochondrial precursor [265], gene GFM2, inhibitor:DMSO",0.00 log 2
same,light to heavy ratio (L/H ratio) of acetylated peptide KSDYIK(ac)LYVR (SEQ ID NO: 315),"Endoplasmin [410], HSP90B1, drug:DMSO",−0.70 log 2
same,light to heavy ratio (L/H ratio) of acetylated peptide EK(ac)NLLHVTDTGVGMTR (SEQ ID NO: 314),"Endoplasmin[ 142], HSP90B1, drug:DMSO",−0.84 log 2
same,light to heavy ratio (L/H ratio) of acetylated peptide EVEEDEYK(ac)AFYK (SEQ ID NO: 261),"Endoplasmin[ 356], HSP90B1, drug:DMSO",−0.89 log 2
same,light to heavy ratio (L/H ratio) of acetylated peptide K(ac)EELTLEGIR (SEQ ID NO: 510),"Eukaryotic initiation factor 4A-I [238], gene EIF4A1, inhibitor:DMSO",0.00 log 2
same,light to heavy ratio (L/H ratio) of acetylated peptide SHLAK(ac)EGLYQYK (SEQ ID NO: 533),"Eukaryotic translation initiation factor 3 subunit A [68], gene EIF3A, inhibitor:DMSO",0.00 log 2
same,"light to heavy ratio (L/H ratio) of acetylated peptide, log 2 scale","FEK(ac)EQQQLNWK (SEQ ID NO: 179), Isoform Long of Integrin beta-7 [763], ITGB7",−0.47
same,"light to heavy ratio (L/H ratio) of acetylated peptide, log 2 scale","FFTVK(ac)LPVALDPGAK (SEQ ID NO: 209), Dolichyl-diphosphooligosaccharide--protein glycosyltransferase subunit 1 precursor [155], RPN1",−0.39
same,L/H ratio of acetylated peptide,"FGIAAK(ac)YQLDPTASISAK (SEQ ID NO: 479), Isoform 2 of Voltage-dependent anion-selective channel protein 2 [224], VDAC2",0.00 log 2
same,"light to heavy ratio (L/H ratio) of acetylated peptide, log 2 scale","FLNAENAQK(ac)FK (SEQ ID NO: 200), Ran-specific GTPase-activating protein [150], RANBP1",−0.68
same,"light to heavy ratio (L/H ratio) of acetylated peptide, log 2 scale","FLTK(ac)GDNNAVDDR (SEQ ID NO: 218), Putative signal peptidase complex catalytic subunit SEC11B [101], SEC11B",0.82
same,"light to heavy ratio (L/H ratio) of acetylated peptide, log 2 scale","FNQK(ac)GEVYK (SEQ ID NO: 149), Lipoamide acyltransferase component of branched-chain alpha-keto acid dehydrogenase complex mitochondrial [435], DBT",0.39
same,"light to heavy ratio (L/H ratio) of acetylated peptide, log 2 scale","FWNK(ac)FLENK (SEQ ID NO: 187), NADH dehydrogenase [ubiquinone] 1 beta subcomplex subunit 6 [49], NDUFB6",0.54
same,light to heavy ratio (L/H ratio) of acetylated peptide AVDLIQK(ac)HK (SEQ ID NO: 546),"Flap endonuclease 1 [252], gene FEN1, inhibitor:DMSO",0.00 log 2
same,L/H ratio of acetylated peptide TCEESSFCK(ac)R (SEQ ID NO: 36),"GANAB [48], log 2 scale, drug vs DMSO",−0.51
